Consider 16 compounds from patent US20060035961A1, “Cyclopentane heptan(ENE)OIC acid, 2-heteroarylalkenyl derivatives as therapeutic agents” (ALLERGAN, INC., priority 2004, published 2006).

Common to all, as to format: cell-based
One experiment deals with T1, hFP (Homo sapiens, UniProt P43088).
T1 construct: expressed in transfected cells; host or cells: HEK-293(EBNA)
The experiment is described as follows: FLIPR calcium signal study, hFP. To be noted: HEK-293(EBNA) cells expressing recombinant human receptor, read-out: HFP functional data. The procedure:
(§1) Methods for FLIPR™ Studies (a) Cell Culture
(§2) HEK-293(EBNA) cells, stably expressing one type or subtype of recombinant human prostaglandin receptors (prostaglandin receptors expressed: hDP/Gqs5; hEP1; hEP2/Gqs5; hEP3A/Gqi5; hEP4/Gqs5; hFP; hIP; hTP), were cultured in 100 mm culture dishes in high-glucose DMEM medium containing 10% fetal bovine serum, 2 mM 1-glutamine, 250 μg/ml geneticin (G418) and 200 μg/ml hygromycin B as selection markers, and 100 units/ml penicillin G, 100 μg/ml streptomycin and 0.25 μg/ml amphotericin B.
(§3) (b) Calcium Signal Studies on the FLIPR™
(§4) Cells were seeded at a density of 5×10^4 cells per well in Biocoat® Poly-D-lysine-coated black-wall, clear-bottom 96-well plates (Becton-Dickinson) and allowed to attach overnight in an incubator at 37° C. Cells were then washed two times with HBSS-HEPES buffer (Hanks Balanced Salt Solution without bicarbonate and phenol red, 20 mM HEPES, pH 7.4) using a Denley Cellwash plate washer (Labsystems). After 45 minutes of dye-loading in the dark, using the calcium-sensitive dye Fluo-4 AM at a final concentration of 2 μM, plates were washed four times with HBSS-HEPES buffer to remove excess dye leaving 100 μl in each well. Plates were re-equilibrated to 37° C. for a few minutes.
(§5) Cells were excited with an Argon laser at 488 nm, and emission was measured through a 510-570 nm bandwidth emission filter (FLIPR™, Molecular Devices, Sunnyvale, Calif.). Drug solution was added in a 50 μl volume to each well to give the desired final concentration. The peak increase in fluorescence intensity was recorded for each well. On each plate, four wells each served as negative (HBSS-HEPES buffer) and positive controls (standard agonists: BW245C (hDP); PGE2 (hEP1; hEP2/Gqs5; hEP3A/Gqi5; hEP4/Gqs5); PGF2, (hFP); carbacyclin (hIP); U-46619 (hTP), depending on receptor). The peak fluorescence change in each drug-containing well was then expressed relative to the controls.
(§6) Compounds were tested in a high-throughput (HTS) or concentration-response (CoRe) format. In the HTS format, forty-four compounds per plate were examined in duplicates at a concentration of 10^−5 M. To generate concentration-response curves, four compounds per plate were tested in duplicates in a concentration range between 10^−5 and 10^−11 M. The duplicate values were averaged. In either, HTS or CoRe format each compound was tested on at least 3 separate plates using cells from different passages to give an n≧3.

Another experiment addresses T2, hEP4/Gqs5 (Homo sapiens, UniProt P35408).
T2 construct: expressed in transfected cells; host or cells: HEK-293(EBNA)
The experiment is described as follows: FLIPR calcium signal study, hEP4/Gqs5. To be noted: HEK-293(EBNA) cells expressing recombinant human receptor, read-out: HEP4 functional data. The procedure:
as §1, §2, §3, §4, §5, §6

For the next experiment, the target named is T3, hTP (Homo sapiens, UniProt P21731).
T3 construct: expressed in transfected cells; host or cells: HEK-293(EBNA)
T3 sequence (P21731 1-343): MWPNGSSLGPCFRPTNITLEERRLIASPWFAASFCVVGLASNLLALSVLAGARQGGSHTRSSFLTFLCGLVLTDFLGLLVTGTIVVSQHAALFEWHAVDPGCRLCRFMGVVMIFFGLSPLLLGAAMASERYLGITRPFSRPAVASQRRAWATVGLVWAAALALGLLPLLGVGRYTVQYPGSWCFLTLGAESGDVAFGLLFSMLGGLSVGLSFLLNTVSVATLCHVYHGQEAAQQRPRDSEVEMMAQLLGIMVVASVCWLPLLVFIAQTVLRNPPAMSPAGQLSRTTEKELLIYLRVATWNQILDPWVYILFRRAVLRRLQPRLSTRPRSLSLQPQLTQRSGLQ
The experiment is described as follows: FLIPR calcium signal study, hTP. The following applies: HEK-293(EBNA) cells expressing recombinant human receptor, read-out: HTP functional data. As to the method: as §1, §2, §3, §4, §5, §6

In a further experiment the target is T4, hIP (Homo sapiens, UniProt P43119).
T4 construct: expressed in transfected cells; host or cells: HEK-293(EBNA)
T4 sequence (P43119 whole entry): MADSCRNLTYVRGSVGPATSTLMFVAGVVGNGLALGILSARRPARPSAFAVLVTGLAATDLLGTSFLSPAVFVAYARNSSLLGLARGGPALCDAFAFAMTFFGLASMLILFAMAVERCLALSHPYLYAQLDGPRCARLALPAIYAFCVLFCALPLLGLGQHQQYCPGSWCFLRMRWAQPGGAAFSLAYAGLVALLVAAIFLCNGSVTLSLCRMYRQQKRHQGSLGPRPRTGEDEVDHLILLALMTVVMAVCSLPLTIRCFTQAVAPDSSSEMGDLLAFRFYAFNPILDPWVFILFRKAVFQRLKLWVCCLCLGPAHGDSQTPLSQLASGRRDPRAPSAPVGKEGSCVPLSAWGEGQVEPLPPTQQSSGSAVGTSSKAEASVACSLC
Nature of the experiment: FLIPR calcium signal study, hIP. The following applies: HEK-293(EBNA) cells expressing recombinant human receptor, read-out: HIP functional data. The procedure:
as §1, §2, §3, §4, §5
Compounds were tested in a high-throughput (HTS) or concentration-response (CoRe) format. […]

The target in a further experiment is T5, hEP3A/Gqi5 (Homo sapiens, UniProt P43115).
T5 construct: expressed in transfected cells; host or cells: HEK-293(EBNA)
T5 sequence (P43115 1-390): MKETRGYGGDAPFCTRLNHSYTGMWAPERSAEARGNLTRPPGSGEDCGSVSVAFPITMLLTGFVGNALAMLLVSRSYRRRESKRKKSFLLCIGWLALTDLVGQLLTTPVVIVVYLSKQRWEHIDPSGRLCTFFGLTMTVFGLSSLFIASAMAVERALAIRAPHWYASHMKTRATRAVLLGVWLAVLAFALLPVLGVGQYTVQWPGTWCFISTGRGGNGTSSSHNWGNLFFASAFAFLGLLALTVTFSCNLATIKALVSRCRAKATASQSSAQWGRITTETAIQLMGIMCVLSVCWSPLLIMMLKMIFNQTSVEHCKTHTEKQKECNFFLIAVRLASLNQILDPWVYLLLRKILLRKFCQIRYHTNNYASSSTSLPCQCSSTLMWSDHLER
The experiment is described as follows: FLIPR calcium signal study, hEP3A/Gqi5. To be noted: HEK-293(EBNA) cells expressing recombinant human receptor, read-out: HEP3A functional data. As to the method: as §1, §2, §3
Cells were seeded at a density of 5×10^4 cells per well in Biocoat® Poly-D-lysine-coated black-wall, clear-bottom 96-well plates (Becton-Dickinson) and allowed to attach overnight in an incubator at 37° C. Cells were then washed two times with HBSS-HEPES buffer (Hanks Balanced Salt Solution without bicarbonate and phenol red, 20 mM HEPES, pH 7.4) using a Denley Cellwash plate washer (Labsystems). […]
Cells were excited with an Argon laser at 488 nm, and emission was measured through a 510-570 nm bandwidth emission filter (FLIPR™, Molecular Devices, Sunnyvale, Calif.). […] The peak increase in fluorescence intensity was recorded for each well. […] The peak fluorescence change in each drug-containing well was then expressed relative to the controls. […]

T1 sequence (P43088 whole entry): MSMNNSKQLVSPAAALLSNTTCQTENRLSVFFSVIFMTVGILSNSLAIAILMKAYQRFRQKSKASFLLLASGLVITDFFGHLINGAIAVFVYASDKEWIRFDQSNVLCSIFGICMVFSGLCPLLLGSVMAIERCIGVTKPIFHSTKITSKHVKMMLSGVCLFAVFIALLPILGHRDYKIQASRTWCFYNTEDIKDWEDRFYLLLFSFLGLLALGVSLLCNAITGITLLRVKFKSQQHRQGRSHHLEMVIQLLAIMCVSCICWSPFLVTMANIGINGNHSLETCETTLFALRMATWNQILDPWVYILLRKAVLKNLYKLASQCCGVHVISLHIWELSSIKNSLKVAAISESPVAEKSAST
T2 sequence (P35408 whole entry): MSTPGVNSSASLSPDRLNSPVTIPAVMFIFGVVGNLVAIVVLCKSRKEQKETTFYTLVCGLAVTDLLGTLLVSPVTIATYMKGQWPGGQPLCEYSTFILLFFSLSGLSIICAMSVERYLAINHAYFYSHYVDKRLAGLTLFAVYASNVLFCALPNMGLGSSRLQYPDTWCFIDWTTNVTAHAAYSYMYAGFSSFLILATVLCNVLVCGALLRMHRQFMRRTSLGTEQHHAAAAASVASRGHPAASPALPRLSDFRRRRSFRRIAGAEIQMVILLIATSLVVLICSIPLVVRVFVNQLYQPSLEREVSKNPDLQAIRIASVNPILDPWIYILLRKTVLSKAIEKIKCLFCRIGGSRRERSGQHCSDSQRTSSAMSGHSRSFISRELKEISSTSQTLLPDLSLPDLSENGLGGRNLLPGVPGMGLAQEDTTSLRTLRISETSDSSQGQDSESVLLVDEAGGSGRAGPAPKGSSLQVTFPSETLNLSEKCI

For the compound `C=CC1CC(O)[C@H](C/C=C\CCCC(=O)NCCO)[C@H]1/C=C/[C@@H](O)CCc1cc(Br)c(C)s1` (stereo partly drawn) [Compound 12H, (Z)-7-{(1R,2S)-2-[(E)-(S)-5-(4-Bromo-5-methyl-thiophen-2-yl)-3-hydroxy-pent-1-enyl]-5-hydroxy-3-vinyl-cyclopentyl}-hept-5-enoic acid (2-hydroxy-ethyl)-amide], the EC50 at hFP, at hEP4/Gqs5, at hTP and at hIP was > 10 µM each time.
Consider `C=CC1CC(O)[C@H](C/C=C\CCCC(N)=O)[C@H]1/C=C/[C@@H](O)CCc1cc(Br)c(C)s1` (stereo partly drawn) [Compound 13L, (Z)-7-{(1R,2S)-2-[(E)-(S)-5-(4-Bromo-5-methyl-thiophen-2-yl)-3-hydroxy-pent-1-enyl]-5-hydroxy-3-vinyl-cyclopentyl}-hept-5-enoic acid amide], for which, at hEP4/Gqs5, the EC50 was > 10 µM.
For `CCNC(=O)CCC/C=C\C[C@H]1C(O)CC(C)[C@@H]1/C=C/[C@@H](O)CCc1cc(Br)c(C)s1` (stereo partly drawn) [Compound 15H, (Z)-7-{(1R,2R)-2-[(E)-(S)-5-(4-Bromo-5-methyl-thiophen-2-yl)-3-hydroxy-pent-1-enyl]-5-hydroxy-3-methyl-cyclopentyl}-hept-5-enoic acid ethylamide], the EC50 on hFP, on hEP4/Gqs5 and on hTP was > 10 µM each time.
In the case of `C=CC1CC(O)[C@H](C/C=C\CCCC(=O)NCCO)[C@H]1/C=C/[C@@H](O)CCc1cc(Br)c(C)s1` (stereo partly drawn) [Compound 12L, (Z)-7-{(1R,2S)-2-[(E)-(S)-5-(4-Bromo-5-methyl-thiophen-2-yl)-3-hydroxy-pent-1-enyl]-5-hydroxy-3-vinyl-cyclopentyl}-hept-5-enoic acid (2-hydroxy-ethyl)-amide], the EC50 on hFP, at hTP and at hIP was > 10 µM throughout.
On to `Cc1sc(CC[C@H](O)/C=C/[C@H]2C(C)CC(O)[C@@H]2C/C=C\CCCC(=O)NCCO)cc1Br` (stereo partly drawn) [Compound 16L, (Z)-7-{(1R,2R)-2-[(E)-(S)-5-(4-Bromo-5-methyl-thiophen-2-yl)-3-hydroxy-pent-1-enyl]-5-hydroxy-3-methyl-cyclopentyl}-hept-5-enoic acid (2-hydroxy-ethyl)-amide], for which, at hEP4/Gqs5, the EC50 was > 10 µM.
As to `Cc1sc(CC[C@H](O)/C=C/[C@H]2CCC(O)[C@@H]2C/C=C\CCCC(N)=O)cc1Br` (stereo partly drawn) [Compound 23H, (Z)-7-{(1R,2R)-2-[(E)-(S)-5-(4-Bromo-5-methyl-thiophen-2-yl)-3-hydroxy-pent-1-enyl]-5-hydroxy-cyclopentyl}-hept-5-enoic acid amide], the EC50 was > 10 µM at hFP and 2.13 µM on hTP.
As for `Cc1sc(CC[C@H](O)/C=C/[C@H]2CCC(O)[C@@H]2C/C=C\CCCC(=O)NCCO)cc1Br` (stereo partly drawn) [Compound 22H, (Z)-7-{(1R,2R)-2-[(E)-(S)-5-(4-Bromo-5-methyl-thiophen-2-yl)-3-hydroxy-pent-1-enyl]-5-hydroxy-cyclopentyl}-hept-5-enoic acid (2-hydroxy-ethyl)-amide], the EC50 at hFP and on hTP was > 10 µM throughout.
In the case of `CCNC(=O)CCC/C=C\C[C@H]1C(O)CC[C@@H]1/C=C/[C@@H](O)CCc1cc(Br)c(C)s1` (stereo partly drawn) [Compound 21H, (Z)-7-{(1R,2R)-2-[(E)-(S)-5-(4-Bromo-5-methyl-thiophen-2-yl)-3-hydroxy-pent-1-enyl]-5-hydroxy-cyclopentyl}-hept-5-enoic acid ethylamide], the EC50 on hFP and on hTP was > 10 µM each time.
Take `Cc1sc(CC[C@H](O)/C=C/[C@H]2C(C)CC(O)[C@@H]2C/C=C\CCCC(N)=O)cc1Br` (stereo partly drawn) [Compound 17L, (Z)-7-{(1R,2R)-2-[(E)-(S)-5-(4-Bromo-5-methyl-thiophen-2-yl)-3-hydroxy-pent-1-enyl]-5-hydroxy-3-methyl-cyclopentyl}-hept-5-enoic acid amide]: the EC50 on hFP was > 10 µM.
Regarding `CCNC(=O)CCC/C=C\C[C@H]1C(O)CC(C)[C@@H]1/C=C/[C@@H](O)CCc1cc(Br)c(C)s1` (stereo partly drawn) [Compound 15L, (Z)-7-{(1R,2R)-2-[(E)-(S)-5-(4-Bromo-5-methyl-thiophen-2-yl)-3-hydroxy-pent-1-enyl]-5-hydroxy-3-methyl-cyclopentyl}-hept-5-enoic acid ethylamide], the EC50 at hEP4/Gqs5 is > 10 µM.
Turning to `Cc1sc(CC[C@H](O)/C=C/[C@H]2C(C)CC(O)[C@@H]2C/C=C\CCCC(N)=O)cc1Br` (stereo partly drawn) [Compound 17H, (Z)-7-{(1R,2R)-2-[(E)-(S)-5-(4-Bromo-5-methyl-thiophen-2-yl)-3-hydroxy-pent-1-enyl]-5-hydroxy-3-methyl-cyclopentyl}-hept-5-enoic acid amide], the EC50 on hFP is ≥ 10 µM; at hEP4/Gqs5, > 10 µM; at hTP, 1.95 µM.
Consider `Cc1sc(CC[C@H](O)/C=C/[C@H]2C(C)CC(O)[C@@H]2C/C=C\CCCC(=O)NCCO)cc1Br` (stereo partly drawn) [Compound 16H, (Z)-7-{(1R,2R)-2-[(E)-(S)-5-(4-Bromo-5-methyl-thiophen-2-yl)-3-hydroxy-pent-1-enyl]-5-hydroxy-3-methyl-cyclopentyl}-hept-5-enoic acid (2-hydroxy-ethyl)-amide], for which the EC50 is ≥ 10 µM at hFP and 1.38 µM on hTP.
Regarding `CCC1CC(O)[C@H](C/C=C\CCCC(N)=O)[C@H]1/C=C/[C@@H](O)CCc1cc(Br)c(C)s1` (stereo partly drawn) [Compound 20H, (Z)-7-{(1R,2R)-2-[(E)-(S)-5-(4-Bromo-5-methyl-thiophen-2-yl)-3-hydroxy-pent-1-enyl]-3-ethyl-5-hydroxy-cyclopentyl}-hept-5-enoic acid amide], the EC50 is 5.42 µM on hFP, > 10 µM at hEP3A/Gqi5 and > 10 µM at hTP.
Turning to `CCNC(=O)CCC/C=C\C[C@@H]1[C@@H](/C=C/[C@@H](O)CCc2cc(Br)c(C)s2)[C@H](O)C[C@@H]1O` [Control, reference compound], the EC50 at hFP was determined as 2.14 µM.
On to `C=CC1CC(O)[C@H](C/C=C\CCCC(=O)NCC)[C@H]1/C=C/[C@@H](O)CCc1cc(Br)c(C)s1` (stereo partly drawn) [Compound 14H, (Z)-7-{(1R,2S)-2-[(E)-(S)-5-(4-Bromo-5-methyl-thiophen-2-yl)-3-hydroxy-pent-1-enyl]-5-hydroxy-3-vinyl-cyclopentyl}-hept-5-enoic acid ethylamide], for which the EC50 on hFP was > 10 µM.
As for `C=CC1CC(O)[C@H](C/C=C\CCCC(N)=O)[C@H]1/C=C/[C@@H](O)CCc1cc(Br)c(C)s1` (stereo partly drawn) [Compound 13H, (Z)-7-{(1R,2S)-2-[(E)-(S)-5-(4-Bromo-5-methyl-thiophen-2-yl)-3-hydroxy-pent-1-enyl]-5-hydroxy-3-vinyl-cyclopentyl}-hept-5-enoic acid amide], the EC50 at hFP is 0.584 µM; on hEP3A/Gqi5, 7.08 µM; on hTP, 2.52 µM; on hIP, > 10 µM.
